Laboratory results from PubChem BioAssay AID816 (SRMLSC, 2007).
Calls of active or inactive are those of the source. The rule behind the calls is not given here.

Tested on: S. cerevisiae GAL1 promoter reporter activation counterscreen
Test: GAL1 promoter activators in yeast, artefact control for yeast lifespan extension project, S. cerevisiae (AID 816);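 note: yeast growth read after 24 h of incubation with compounds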

SMILES | EC50
Cc1cc(C)c(S(=O)(=O)c2ccccc2)c(OC(=O)c2ccc(Cl)cc2Cl)n1 | > 40 µM (inactive)
O=c1[nH]c2ccccc2nc1Cc1ccccc1 | > 40 µM (inactive)
COc1ccc(-c2cc(N)n(S(=O)(=O)c3c(F)c(F)c(F)c(F)c3F)n2)cc1OC | > 40 µM (inactive)
CC(=O)N1CCN(CCN=CC2=C(O)CC(c3cccs3)CC2=O)CC1 (centres undefined) | > 40 µM (inactive)
CC(C)(C)OC(=O)[C@H]1[C@H](c2ccc([N+](=O)[O-])cc2)C2(C(=O)c3ccccc3C2=O)C2c3ccccc3C=NN21 (some centres undefined) | > 40 µM (inactive)
Cc1ccc(/C(O)=C2\C(=O)C(=O)N(c3cc(C)on3)C2c2cccc(Cl)c2)cc1 (centres undefined) | > 40 µM (inactive)
CCCCCn1c(=O)c(C(=O)NCc2ccccn2)c(O)c2ccccc21 | > 40 µM (inactive)
O=S1(=O)C=C(Sc2nc3ccccc3s2)c2ccccc21 | > 40 µM (inactive)
CC1(C)CC(=O)c2sc(NS(C)(=O)=O)nc2C1 | > 40 µM (inactive)
CN1C(=O)NC(c2ccc(O)cc2)C(C(=O)c2cccs2)C1(O)C(F)(F)F (centres undefined) | > 40 µM (inactive)
O=C(CCl)c1ccc(Cc2ncc(C(F)(F)F)cc2Cl)s1 | > 40 µM (inactive)
CN(C)CC(C(=O)c1ccccc1)c1ccccc1 (centres undefined) | > 40 µM (inactive)
CCOC(=O)c1ccc2c(c1)n(CCO)c(C)[n+]2CC | > 40 µM (inactive)
CNC(=S)NC1CC2CCCC(C1)N2Cc1ccco1 (centres undefined) | > 40 µM (inactive)
Cc1ccc(S(=O)(=O)C(C#N)c2nc3ccccc3nc2N2CCCC2)cc1 (centres undefined) | > 40 µM (inactive)
CS(=O)(=O)c1nc(-c2ccco2)cc(C(F)(F)F)n1 | > 40 µM (inactive)
O=C1CC(c2ccccc2)CC(O)=C1C=NCCN1CCN(C(=O)Cc2ccccc2)CC1 (centres undefined) | > 40 µM (inactive)
O=C1C=CC2C(c3ccc4c(c3)OCO4)CC1N2Cc1ccccc1 (centres undefined) | > 40 µM (inactive)
CC(=O)Nc1nc(C)c(Oc2ccccc2)c(=O)[nH]1 | > 40 µM (inactive)
Oc1ccc(NCc2ccccc2OCc2ccccc2F)cc1 | > 40 µM (inactive)
O=C(Nc1scc(-c2ccc(F)cc2)c1C(=O)O)c1ccco1 | > 40 µM (inactive)
CCCc1[nH]nc2c1C(c1ccc(Br)s1)C(C#N)=C(N)O2 (centres undefined) | > 40 µM (inactive)
N#CSCC(=O)N1c2ccccc2CCc2ccccc21 | > 40 µM (inactive)
CCCC(=Nc1ccccc1)C1=C(O)C(C(=O)OC)C(C)(C)CC1=O (centres undefined) | > 40 µM (inactive)
CNC(=O)/C(C#N)=C/c1c(F)cccc1Cl | > 40 µM (inactive)

SMILES | EC50
O=C(CCN1CCCCCC1)Nc1ccc(F)cc1 | > 40 µM (inactive)
CCCCn1c(/N=C/c2ccccc2NS(=O)(=O)c2ccc(C)cc2)nc2ccccc21 | > 40 µM (inactive)
CN1CCC2(CC1)C(C#N)=C(N)NC(S)=C2C#N | > 40 µM (inactive)
Cc1cccc(NC(=O)c2c(O)c3cccc4c3n(c2=O)CCC4)n1 | > 40 µM (inactive)
C/C(=N\NC(=O)c1cccc(Cl)c1)C1C(=O)c2ccccc2C1=O | > 40 µM (inactive)
O=C(/C=C(\O)c1ccc(Cl)cc1)C(=O)NNC(=O)C(O)(c1ccccc1)c1ccccc1 | > 40 µM (inactive)
Cc1c(NC(=O)C(=O)/C=C(\O)c2ccc(Cl)cc2)c(=O)n(-c2ccccc2)n1C | > 40 µM (inactive)
C/C(=N\NC(=O)c1cccnc1)c1c(O)cc(C)oc1=O | > 40 µM (inactive)
Cc1cc(C2C(C#N)=C(N)Oc3n[nH]c(C)c32)c(C)s1 (centres undefined) | > 40 µM (inactive)
Cc1ccc(C(=O)c2no[n+]([O-])c2C(=O)c2ccc(C)cc2)cc1 | > 40 µM (inactive)
Cc1c(O)c(S(=O)c2ccccc2)c(=O)n(-c2ccccc2)c1-c1ccccc1 (centres undefined) | > 40 µM (inactive)
O=c1cc(O)c2c(=O)n(-c3ccccc3)c3c(c2o1)CCCCCC3 | > 40 µM (inactive)
CCCC[n+]1c(-c2ccc(Cl)cc2Cl)csc1Nc1ccccc1 | > 40 µM (inactive)
Cc1nc(SC(C)C)[nH]c(=O)c1Cc1ccccc1 | > 40 µM (inactive)
Cc1n[nH]c(=O)n1-c1cccc(C(F)(F)F)c1 | > 40 µM (inactive)
Cn1c(=O)c(=O)n(C)c2cc(S(=O)(=O)N3CCN(Cc4ccccc4)CC3)ccc21 | > 40 µM (inactive)
O=C(NCc1ccco1)c1c(O)c2cccc3c2n(c1=O)CCC3 | > 40 µM (inactive)
CCOC(=O)C1=C(C)Nc2nc(=S)[nH]n2C1c1ccc(Cl)cc1 (centres undefined) | > 40 µM (inactive)
COc1ccc(/C=C(/C(=O)c2ccc(Cl)cc2Cl)n2cncn2)cc1 | > 40 µM (inactive)
O=S(=O)(ON(c1ccccc1)S(=O)(=O)c1ccccc1)c1ccccc1 | > 40 µM (inactive)
Cc1ccc(C)c(N2CCN(S(=O)(=O)c3c(C)noc3/C=C/N(C)C)CC2)c1 | > 40 µM (inactive)
COc1ccc(OC)c(NC(=S)N2CCN(C/C=C/c3ccccc3)CC2)c1 | > 40 µM (inactive)
CCc1ccc(CC2S/C(=C(\C#N)C(C)=O)NC2=O)cc1 (centres undefined) | > 40 µM (inactive)
O=c1c(-c2ccc(Cl)cc2)[n+]([O-])c2ccccc2n1OCc1ccccn1 | > 40 µM (inactive)
CCCCn1c(NS(=O)(=O)c2ccc(C)cc2)c(C(=O)OCC)c2nc3ccccc3nc21 | > 40 µM (inactive)

SMILES | EC50
CC(=O)Oc1ccc(N(C(C)=O)S(=O)(=O)c2ccc(C)c([N+](=O)[O-])c2)cc1 | > 40 µM (inactive)
CCOC(=O)C1CCN(C(c2cc3ccc(C)c(C)c3[nH]c2=O)c2nnnn2C2CCCCC2)CC1 (centres undefined) | > 40 µM (inactive)
Cc1cc(N2C(=O)CC(Cc3ccccc3)C2=O)no1 (centres undefined) | > 40 µM (inactive)
CN(C)C=C1C(=O)N(C2CCCCC2)C(=O)N(C2CCCCC2)C1=O | > 40 µM (inactive)
Cc1ccnc(N=Cc2c(O)ccc3oc4c(c23)CCCC4)c1 | > 40 µM (inactive)
O=C(c1ccccc1)c1nc2ccccc2[nH]c1=O | > 40 µM (inactive)
CCCN1C(=O)/C(=C/c2ccncc2)SC1=S | > 40 µM (inactive)
O=[N+]([O-])c1cc2oc3c(c2c(C=NCc2ccncc2)c1O)CCCC3 | > 40 µM (inactive)
Cc1ccc(C(=O)NNC(=S)NC(=O)c2ccc(Cl)cc2)cc1 | > 40 µM (inactive)
CC(=O)Oc1oc(-c2ccccc2)nc1C=Nc1ccccc1 | > 40 µM (inactive)
CC(=O)Oc1ccccc1N1C(=O)c2ccc(C(=O)O)cc2C1=O | > 40 µM (inactive)
O=C(Nc1ccc(S(=O)(=O)N2CCc3ccccc3C2)cc1)c1ccccc1 | > 40 µM (inactive)
O=C(CS(=O)c1ccc(C(F)(F)F)cc1[N+](=O)[O-])Oc1ccccc1 (centres undefined) | > 40 µM (inactive)
CCCCCCCC(=O)N/N=C(/C)c1c(O)cc(C)oc1=O | > 40 µM (inactive)
Cc1cc(C)nc(SCc2cc(=O)c(OC(=O)c3ccco3)co2)n1 | > 40 µM (inactive)
COC(=O)C1=C(C(=O)OC)SC(=C2C(=S)C(C)(C)N(C(=O)C(C)C)c3ccccc32)S1 | > 40 µM (inactive)
CC(=O)c1c(O)cc2n(c1=O)-c1ccc(Cl)cc1C2(C)C | > 40 µM (inactive)
COc1ccc(CN2CCN(C(=O)COc3cccc(C)c3)CC2)c(OC)c1 | > 40 µM (inactive)
CCN(CC)Cc1c(O)c(Cl)cc2c(C)c(C)c(=O)oc12 | > 40 µM (inactive)
CC1CCCCC1NC(=O)/C(C#N)=C/c1ccccc1F (centres undefined) | > 40 µM (inactive)
O=C1CC(c2ccccc2)CC(O)=C1C=NCCN1CCNCC1 (centres undefined) | > 40 µM (inactive)
O=c1c2[nH]c3ccccc3c2ncn1Cc1ccco1 | > 40 µM (inactive)
CCOC(=O)C1=C(N)OC2=C(C(=O)CCC2)C1c1sccc1C (centres undefined) | > 40 µM (inactive)
CCOc1ccc(C(=O)C(CN2CCOCC2)c2ccccc2)cc1 (centres undefined) | > 40 µM (inactive)
COC(=O)C(=O)/C=C(\O)c1ccc(C)cc1 | > 40 µM (inactive)

SMILES | EC50
CCCn1[nH]cc(SC)c(=O)c1=O | > 40 µM (inactive)
COc1ccc(CCN2C(=O)C(O)=C(C(=O)c3ccco3)C2c2cccs2)cc1OC (centres undefined) | > 40 µM (inactive)
COC(=O)c1sc2ncn(-n3c(C)ccc3C)c(=O)c2c1C | > 40 µM (inactive)
CCC(=O)Nc1ccccc1Sc1ncnc2scc(-c3ccccc3)c12 | > 40 µM (inactive)
Cc1nonc1NC(=O)CSc1nc(C2CCCCC2)nc2ccccc12 | > 40 µM (inactive)
Cc1cc(C)n(-c2ccc(OCC(=O)O)nn2)n1 | > 40 µM (inactive)
COc1cc(/C=c2\sc3nc(-c4ccncc4)nn3c2=O)ccc1OC(C)=O | > 40 µM (inactive)
COc1ccc(NCc2nc3ccccc3n2CCOc2ccccc2)cc1 | > 40 µM (inactive)
Cc1ccc(N2NC(=O)/C(=C\c3cc4c(cc3[N+](=O)[O-])OCO4)C2=O)cc1C | > 40 µM (inactive)
CSc1ccc(S(=O)(=O)NCc2ccc(Cl)cc2Cl)cc1 | > 40 µM (inactive)
Cn1nnnc1SCCNCC#Cc1ccccc1 | > 40 µM (inactive)
N#Cc1c(-c2ccccc2)c(-c2ccccc2)nn(CC(=O)NNC(=O)Nc2ccccc2)c1=O | > 40 µM (inactive)
O=C(O)c1c[nH]c(=S)n1-c1ccc(F)cc1 | > 40 µM (inactive)
O=C(NCc1ccco1)c1cc(C(=O)C2CCCCC2)c[nH]1 | > 40 µM (inactive)
COc1ccc(C2CC23N=C(c2ccccc2)OC3=O)cc1 (centres undefined) | > 40 µM (inactive)
COC(=O)c1sc(S(=O)(=O)Nc2ccc(Br)cc2)c(C(=O)OC)c1C | > 40 µM (inactive)
CCC(C)OC(=O)C1C(c2ccccc2)C(C(=O)O)C1c1ccccc1 (centres undefined) | > 40 µM (inactive)
Cc1cc(C)n2cc(CSc3nnc(N)s3)nc2n1 | > 40 µM (inactive)
COc1ccc(NC(=O)/C(Cl)=C(/Cl)S(=O)Cc2ccc(C)cc2)cn1 (centres undefined) | > 40 µM (inactive)
COc1cc(Br)cc(-c2nc3c(c(=O)[nH]c(=O)n3Cc3ccccc3)n2C)c1O | > 40 µM (inactive)
Cc1ccc(N(C)C(=O)Oc2ccc(C(=O)c3ccc(Cl)cc3)cc2)cc1 | > 40 µM (inactive)
CC(C)(C)C(=O)/C(=C/c1cccc([N+](=O)[O-])c1)n1cncn1 | > 40 µM (inactive)
CC1=CN2C(=N)/C(=C/c3ccc([N+](=O)[O-])o3)C(=O)N=C2S1 | > 40 µM (inactive)
COc1ccc2c3c(cccc13)C(=O)N(O)C2=O | > 40 µM (inactive)
